Laboratory results taken from DBAASP.
In brackets after ≈: the same amount, converted by molar mass.

Tests used:
Test in all cases: ≥ marks a high value that may be exact or a test limit, other limits are often not marked, values filed in µg/mL are converted to µM
[1] = test system: Enterococcus faecalis ATCC 29212
[2] = test system: Escherichia coli ATCC 11775
[3] = test system: Escherichia coli ATCC 25922
[4] = test system: Escherichia coli ATCC 43827
[5] = test system: Pseudomonas aeruginosa ATCC 27853
[6] = test system: Staphylococcus aureus ATCC 25923
[7] = test system: Bacillus subtilis ATCC 6633
[8] = test system: Escherichia coli ATCC 10536
[9] = test system: Escherichia coli DH5alpha
[10] = test system: Klebsiella pneumoniae ATCC 27736
[11] = test system: Pseudomonas aeruginosa ATCC BAA-427
[12] = test system: Staphylococcus aureus ATCC 9144
[13] = test system: Escherichia coli ESBL
[14] = test system: Klebsiella pneumoniae
[15] = test system: Bacillus subtilis ATCC 19659
[16] = test system: Candida albicans ATCC 90028
[17] = test system: Candida krusei ATCC 6258
[18] = test system: Candida parapsilosis ATCC 22019
[19] = test system: Acinetobacter baumannii ATCC 19606
[20] = test system: Bordetella bronchiseptica CUN 11844-99
[21] = test system: Brucella abortus 9.49 (per-)
[22] = test system: Escherichia coli ATCC 23716
[23] = test system: Pseudomonas aeruginosa CUN 4158-02
[24] = test system: Staphylococcus aureus ATCC 43300
[25] = test system: Yersinia pestis KIM pYV
[26] = test system: Escherichia coli NBRC 14237
[27] = test system: Micrococcus luteus NBRC 12708
[28] = test system: Pseudomonas aeruginosa NBRC 12582
[29] = test system: Staphylococcus aureus NBRC 12732
[30] = test system: Bacillus cereus AS1.126
[31] = test system: Enterobacter cloacae CGMCC 1.58
[32] = test system: Enterococcus faecalis CGMCC 1.595
[33] = test system: Enterococcus faecium CGMCC 1.2334
[34] = test system: Escherichia coli AS1.349
[35] = test system: Klebsiella aerogenes CGMCC 1.876
[36] = test system: Klebsiella pneumoniae subsp. pneumoniae CGMCC 1.176
[37] = test system: Lactococcus lactis AS1.1690
[38] = test system: Pseudomonas aeruginosa CGMCC 1.860
[39] = test system: Staphylococcus aureus AS1.72

In the case of CSCC[C@H](NC(=O)[C@H](CCCN=C(N)N)NC(=O)[C@H](Cc1c[nH]c2ccccc12)NC(=O)[C@H](CCC(N)=O)NC(=O)[C@H](Cc1c[nH]c2ccccc12)NC(=O)[C@H](CCCN=C(N)N)NC(=O)[C@H](CCCN=C(N)N)NC(=O)[C@H](C)NC(=O)[C@H](CCCCN)NC(=O)[C@@H](N)Cc1ccccc1)C(=O)N[C@@H](CCCCN)C(=O)N[C@@H](CCCCN)C(=O)N[C@@H](CC(C)C)C(=O)NCC(=O)N[C@@H](C)C(=O)O [FKARRWQWRMKKLGA], the MIC [1] is reported as 48 µM (≈ 94.2 µg/mL), the MIC [2] is reported as no less than 48 µM and the MIC [3] is reported as 24 µM (≈ 47.1 µg/mL). For the same compound, the MIC [4] was 12 µM (≈ 23.5 µg/mL), the MIC [5] was 48 µM (≈ 94.2 µg/mL) and the MIC [6] was 48 µM (≈ 94.2 µg/mL).
CC[C@H](C)[C@H](NC(=O)CN)C(=O)NCC(=O)N[C@@H](C)C(=O)N[C@H](C(=O)N[C@H](C(=O)N[C@@H](CCCCN)C(=O)N[C@H](C(=O)N[C@@H](CC(C)C)C(=O)N[C@H](C(=O)N[C@H](C(=O)NCC(=O)N[C@H](C(=O)N1CCC[C@H]1C(=O)N[C@@H](C)C(=O)N[C@H](C(=O)N[C@H](C(=O)N[C@@H](CO)C(=O)N[C@@H](Cc1c[nH]c2ccccc12)C(=O)N[C@H](C(=O)N[C@@H](CCCCN)C(=O)N[C@@H](CCCN=C(N)N)C(=O)N[C@@H](CCCCN)C(=O)N[C@@H](CCCN=C(N)N)C(=O)N[C@@H](CCC(N)=O)C(=O)N[C@@H](CCC(N)=O)C(N)=O)[C@@H](C)CC)[C@@H](C)CC)C(C)C)C(C)C)[C@@H](C)O)[C@@H](C)O)C(C)C)C(C)C)C(C)C [GIGAVVKVLTTGVPAVISWIKRKRQQ] gave an MIC [7] of 2.5 µM (≈ 7.01 µg/mL), an MIC [8] of 3.3 µM (≈ 9.25 µg/mL) and an MIC [9] of 3.5 µM (≈ 9.82 µg/mL). It also gave an MIC [10] of 2.1 µM (≈ 5.89 µg/mL), an MIC [11] of 12 µM (≈ 33.7 µg/mL) and an MIC [12] of 3 µM (≈ 8.41 µg/mL).
Compound CC(C)C[C@H](NC(=O)[C@H](CCCCN)NC(=O)CNC(=O)[C@H](CCCCN)NC(=O)[C@H](Cc1ccccc1)NC(=O)[C@H](CCCCN)NC(=O)[C@H](Cc1c[nH]c2ccccc12)NC(=O)[C@H](CCCN=C(N)N)NC(=O)[C@H](Cc1ccccc1)NC(=O)[C@H](CCCN=C(N)N)NC(=O)[C@H](CCCN=C(N)N)NC(=O)[C@H](Cc1ccc(O)cc1)NC(=O)[C@H](CO)NC(=O)[C@H](CCCCN)NC(=O)CN)C(=O)N[C@@H](Cc1ccccc1)C(=O)N[C@@H](CC(C)C)C(=O)N[C@@H](Cc1ccccc1)C(=O)NCC(N)=O [GKSYRRFRWKFKGKLFLFG] has an MIC [13] of 4.67 µM (≈ 11.3 µg/mL) and an MIC [14] of 6.61 µM (≈ 16 µg/mL).
Compound CC[C@H](C)[C@H](NC(C)=O)C(=O)N[C@@H](Cc1ccccc1)C(=O)NCC(=O)N[C@@H](C)C(=O)N[C@H](C(=O)N[C@@H](Cc1c[nH]c2ccccc12)C(=O)N1CCC[C@H]1C(=O)N[C@@H](CC(C)C)C(=O)N[C@@H](C)C(=O)N[C@@H](CC(C)C)C(=O)NCC(=O)N[C@@H](C)C(=O)N[C@@H](CC(C)C)C(=O)N[C@@H](CCCCN)C(=O)N[C@@H](CC(N)=O)C(=O)N[C@@H](CC(C)C)C(=O)N[C@H](C(=O)N[C@@H](CCCCN)C(N)=O)[C@@H](C)CC)[C@@H](C)CC [IFGAIWPLALGALKNLIK] has an MIC [15] of 4 µM (≈ 7.92 µg/mL), an MIC [16] of no less than 32 µM and an MIC [17] of no less than 125 µM. For the same compound, the MIC [18] was no less than 125 µM, the MIC [3] was 128 µM (≈ 253 µg/mL) and the MIC [5] was greater than 128 µM. For the same compound, the MIC [6] was 4 µM (≈ 7.92 µg/mL).
For CC[C@H](C)[C@H](N)C(=O)N[C@@H](CO)C(=O)N[C@@H](CCCCN)C(=O)N[C@@H](CCCN=C(N)N)C(=O)N[C@H](C(=O)N[C@@H](CC(C)C)C(=O)N[C@H](C(=O)NCC(=O)N[C@@H](CCCCN)C(=O)N[C@@H](CCCCN)C(N)=O)[C@@H](C)O)[C@@H](C)CC [ISKRILTGKK], the MIC [19] was greater than 224 µM, the MIC [20] was no less than 224 µM and the MIC [21] was no less than 56 µM. The MIC [22] was no less than 224 µM, the MIC [3] was greater than 224 µM and the MIC [23] was no less than 224 µM. It also gave an MIC [24] greater than 224 µM and an MIC [25] of no less than 224 µM.
CC[C@H](C)[C@H](NC(=O)CNC(=O)[C@H](C)NC(=O)[C@H](CC(C)C)NC(=O)[C@H](CC(C)C)NC(=O)CNC(=O)[C@@H]1CCCN1C(=O)[C@H](CC(C)C)NC(=O)[C@H](CC(C)C)NC(=O)[C@H](CC(N)=O)NC(=O)[C@H](CC(C)C)NC(=O)[C@H](CC(C)C)NC(=O)[C@@H](N)CCCCN)C(=O)N[C@@H](Cc1ccccc1)C(N)=O [KLLNLLPGLLAGIF] was tested, and the MIC [26] was 12.5 µM (≈ 18.5 µg/mL), the MIC [27] was 25 µM (≈ 37 µg/mL) and the MIC [28] was no less than 50 µM. The MIC [29] was 12.5 µM (≈ 18.5 µg/mL).
CSCC[C@H](NC(=O)[C@H](CCCN=C(N)N)NC(=O)[C@H](Cc1c[nH]c2ccccc12)NC(=O)[C@H](CCC(N)=O)NC(=O)[C@H](Cc1c[nH]c2ccccc12)NC(=O)[C@H](CCCN=C(N)N)NC(=O)[C@@H](N)CCCN=C(N)N)C(=O)N[C@@H](CCCCN)C(=O)N[C@@H](CCCCN)C(=O)N[C@@H](CC(C)C)C(=O)NCC(=O)O [RRWQWRMKKLG] was tested, and the MIC [2] was 15 µM (≈ 23.2 µg/mL), the MIC [3] was 15 µM (≈ 23.2 µg/mL) and the MIC [4] was 7 µM (≈ 10.8 µg/mL). The MIC [5] was 15 µM (≈ 23.2 µg/mL) and the MIC [6] was 30 µM (≈ 46.3 µg/mL).
Compound NC(N)=NCCC[C@H](NC(=O)[C@H](CCCN=C(N)N)NC(=O)[C@H](Cc1c[nH]c2ccccc12)NC(=O)[C@H](Cc1ccccc1)NC(=O)[C@H](CCCN=C(N)N)NC(=O)[C@H](CCCN=C(N)N)NC(=O)[C@H](Cc1c[nH]c2ccccc12)NC(=O)[C@@H](N)CCCN=C(N)N)C(=O)O [RWRRFWRR] has an MIC [30] of 3.13 µM (≈ 4.13 µg/mL), an MIC [31] of no less than 100 µM and an MIC [32] of 12.5 µM (≈ 16.5 µg/mL). The MIC [33] was 12.5 µM (≈ 16.5 µg/mL), the MIC [34] was no less than 50 µM and the MIC [35] was no less than 100 µM. The MIC [36] was no less than 100 µM, the MIC [37] was 6.25 µM (≈ 8.24 µg/mL) and the MIC [38] was 6.25 µM (≈ 8.24 µg/mL). It also gave an MIC [39] of 6.25 µM (≈ 8.24 µg/mL).
